Key:
[1] = target: T1, Discoidin Domain Receptor Tyrosine Kinase 2 (DDR2 N456S) (Homo sapiens, UniProt Q16832, N456S); test: SelectScreen kinase profiling at […] CT-179, ATP at Km; type: biochemical
T1 sequence (Q16832 22-855 N456S): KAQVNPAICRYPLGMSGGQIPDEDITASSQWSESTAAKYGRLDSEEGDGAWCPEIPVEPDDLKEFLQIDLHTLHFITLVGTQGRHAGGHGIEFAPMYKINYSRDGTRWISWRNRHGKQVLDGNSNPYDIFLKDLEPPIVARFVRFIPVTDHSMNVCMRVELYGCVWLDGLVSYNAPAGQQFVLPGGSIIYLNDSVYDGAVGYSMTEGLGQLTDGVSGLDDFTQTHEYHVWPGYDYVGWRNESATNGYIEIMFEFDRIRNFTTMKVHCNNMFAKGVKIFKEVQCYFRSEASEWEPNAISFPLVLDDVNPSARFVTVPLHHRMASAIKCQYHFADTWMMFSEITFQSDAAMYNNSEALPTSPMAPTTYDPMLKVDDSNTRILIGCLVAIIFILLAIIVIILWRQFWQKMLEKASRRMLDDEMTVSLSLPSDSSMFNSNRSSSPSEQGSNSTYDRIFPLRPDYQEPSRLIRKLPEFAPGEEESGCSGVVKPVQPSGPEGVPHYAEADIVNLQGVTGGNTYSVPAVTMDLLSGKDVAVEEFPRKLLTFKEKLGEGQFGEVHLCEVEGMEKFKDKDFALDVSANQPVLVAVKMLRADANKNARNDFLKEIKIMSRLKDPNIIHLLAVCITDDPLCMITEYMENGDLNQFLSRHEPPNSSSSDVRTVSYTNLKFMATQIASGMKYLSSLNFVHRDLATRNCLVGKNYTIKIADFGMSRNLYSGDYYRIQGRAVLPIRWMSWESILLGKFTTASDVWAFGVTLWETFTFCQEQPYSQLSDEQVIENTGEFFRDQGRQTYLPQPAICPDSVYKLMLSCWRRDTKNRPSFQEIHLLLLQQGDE

[2] = target: T2, Fetal Liver Tyrosine Kinase 3 (FLT3) (Homo sapiens, UniProt P36888); test: SelectScreen kinase profiling at ATP Km, with dose-response follow-up; type: biochemical
T2 sequence (P36888 27-993): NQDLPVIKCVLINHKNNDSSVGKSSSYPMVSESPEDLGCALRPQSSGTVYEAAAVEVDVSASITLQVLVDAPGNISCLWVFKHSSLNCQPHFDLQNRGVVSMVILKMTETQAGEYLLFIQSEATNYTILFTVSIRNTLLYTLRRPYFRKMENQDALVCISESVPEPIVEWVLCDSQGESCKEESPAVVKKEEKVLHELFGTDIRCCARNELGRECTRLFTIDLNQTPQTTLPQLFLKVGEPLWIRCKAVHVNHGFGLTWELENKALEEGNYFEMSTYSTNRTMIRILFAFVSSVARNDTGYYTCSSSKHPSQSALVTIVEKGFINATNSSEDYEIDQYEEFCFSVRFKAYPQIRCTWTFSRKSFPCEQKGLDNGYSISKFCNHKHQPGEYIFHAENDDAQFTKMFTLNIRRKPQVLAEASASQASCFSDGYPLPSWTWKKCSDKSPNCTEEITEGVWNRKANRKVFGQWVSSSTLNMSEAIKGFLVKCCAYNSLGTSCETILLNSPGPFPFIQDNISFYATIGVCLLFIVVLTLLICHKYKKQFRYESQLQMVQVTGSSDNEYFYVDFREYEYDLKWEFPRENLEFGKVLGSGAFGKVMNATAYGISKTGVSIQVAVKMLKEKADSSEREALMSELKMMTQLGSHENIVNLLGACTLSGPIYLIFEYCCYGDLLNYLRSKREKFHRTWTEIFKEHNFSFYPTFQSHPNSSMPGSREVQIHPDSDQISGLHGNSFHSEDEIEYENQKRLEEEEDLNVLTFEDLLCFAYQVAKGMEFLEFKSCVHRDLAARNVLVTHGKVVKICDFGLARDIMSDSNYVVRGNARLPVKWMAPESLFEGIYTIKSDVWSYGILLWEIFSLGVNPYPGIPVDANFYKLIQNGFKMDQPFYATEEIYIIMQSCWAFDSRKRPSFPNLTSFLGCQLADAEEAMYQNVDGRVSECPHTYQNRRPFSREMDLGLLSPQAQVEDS

OLIG2 = target: T3, OLIG2 (Homo sapiens, UniProt Q13516); type: cell-based
T3 sequence (Q13516 1-323): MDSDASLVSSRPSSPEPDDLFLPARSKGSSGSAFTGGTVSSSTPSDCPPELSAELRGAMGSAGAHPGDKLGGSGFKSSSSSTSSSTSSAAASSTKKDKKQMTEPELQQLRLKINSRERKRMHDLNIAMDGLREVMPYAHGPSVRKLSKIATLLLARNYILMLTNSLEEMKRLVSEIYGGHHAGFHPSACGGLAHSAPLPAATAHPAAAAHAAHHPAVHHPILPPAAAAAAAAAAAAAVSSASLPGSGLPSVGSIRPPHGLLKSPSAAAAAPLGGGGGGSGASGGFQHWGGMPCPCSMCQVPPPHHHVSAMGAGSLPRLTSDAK

- % inhibition at 1 μM [1]: 87
- IC50 [2]: 20 nM
- IC50 (OLIG2): 1250 nM
Compound: Cc1cc(NCCCN(C)C)nc(NC(=O)Nc2ccc(Cl)c(Cl)c2)n1 [CT-179]
